Measured values as given in publication PMC11876601 (Molecular Systems Biology, 2025).
Several values for one entry are separate records, joined by “and”; a condition that tells them apart may be missing. Equal entries are not always repeated. Where two headings read alike, the source gives them in different places.

Tested on: AsPC-1 cells
Assay: Cell proliferation assay, chemodrug + ATR inhibitor (Incucyte confluence, 72 h);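 note: underlying read-out for every value is AsPC-1 confluence after 72 h incubation at 37 °C and 5% CO2, divided by that well's starting confluence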
Conditions: for Curve slope / Curve bottom / Curve top: fitted dose-response curve; for Curve bottom / Curve top: relative response; for EC50: Homo sapiens
[1] = AsPC1, Experiment ATRi (ATR inhibitor alone)
[2] = AsPC1, Experiment GEM+ATRi_dose1
[3] = AsPC1, Experiment GEM+ATRi_dose2
[4] = AsPC1, Experiment GEM+ATRi_dose3

Method: Cells were seeded at 5000 cells/well into 96-well flat bottom plates (Eppendorf) and allowed to attach overnight. […] Cells were incubated for 72 h at 37 °C and 5% CO2. Cell confluence readouts at 72 h were either normalized to their initial confluence using the Incucyte software (AsPC-1) or used without prior normalization (all others). […] Each experiment was performed in triplicates, the data was plotted as mean ± standard deviation (s.d.).

`C[C@@H]1COCCN1c1cc(C2([S@](C)(=N)=O)CC2)nc(-c2cc[nH]c3nccc2-3)n1` [Ceralasertib] was tested, and the Curve slope [1] was 2.93 and 3.34 and 3.10, the Curve bottom [1] was 1.16 and 0.93 and 0.99 and the Curve top [1] was 0.45 and 0.34 and 0.35. For the same compound, the Curve slope [2] was 1.26 and 1.52 and 1.58, the Curve bottom [2] was 1.03 and 0.96 and 0.97 and the Curve top [2] was 0.53 and 0.41 and 0.45. For the same compound, the Curve bottom [3] was 1.06 and 0.94 and 0.90, the Curve top [3] was 0.50 and 0.38 and 0.42 and the Curve slope [4] was 1.68 and 1.97. The Curve bottom [4] was 0.98, the Curve top [4] was 0.46 and 0.35 and 0.39 and the “Raw data (confluence at 72 h/confluence at 0 h)” value (“Raw data” for short) (Ceralasertib experiment, replicate R1, titrated drug dose 3 nM) was 3.36. For the same compound, the “Raw data” value (Ceralasertib experiment, replicate R1, titrated drug dose 10 nM) was 3.44, the “Raw data” value (Ceralasertib experiment, replicate R1, titrated drug dose 30 nM) was 3.6 and the “Raw data” value (Ceralasertib experiment, replicate R1, titrated drug dose 100 nM) was 3.35. For the same compound, the “Raw data” value (Ceralasertib experiment, replicate R1, titrated drug dose 300 nM) was 3.69, the “Raw data” value (Ceralasertib experiment, replicate R1, titrated drug dose 1000 nM) was 3.19 and the “Raw data” value (Ceralasertib experiment, replicate R1, titrated drug dose 3000 nM) was 1.77. For the same compound, the “Raw data” value (Ceralasertib experiment, replicate R1, titrated drug dose 10000 nM) was 1.38, the “Raw data” value (Ceralasertib experiment, replicate R2, titrated drug dose 3 nM) was 3.66 and the “Raw data” value (Ceralasertib experiment, replicate R2, titrated drug dose 10 nM) was 3.73. For the same compound, the “Raw data” value (Ceralasertib experiment, replicate R2, titrated drug dose 30 nM) was 3.9, the “Raw data” value (Ceralasertib experiment, replicate R2, titrated drug dose 100 nM) was 2.91 and the “Raw data” value (Ceralasertib experiment, replicate R2, titrated drug dose 300 nM) was 3.91. The “Raw data” value (Ceralasertib experiment, replicate R2, titrated drug dose 1000 nM) was 3.25, the “Raw data” value (Ceralasertib experiment, replicate R2, titrated drug dose 3000 nM) was 1.61 and the Response (GEM 0 nM, ATRi 100 nM) was 3.13. For the same compound, the Response (GEM 0 nM, ATRi 300 nM) was 3.19, the Response (GEM 0 nM, ATRi 1000 nM) was 3.06 and the Response (GEM 1 nM + ATRi 100 nM) was 3.00. For the same compound, the Response (GEM 1 nM + ATRi 300 nM) was 3.18, the Response (GEM 1 nM + ATRi 1000 nM) was 2.76 and the Response (GEM 3 nM + ATRi 100 nM) was 3.15. The Response (GEM 3 nM + ATRi 300 nM) was 3.26, the Response (GEM 3 nM + ATRi 1000 nM) was 2.99 and the Response (GEM 10 nM + ATRi 100 nM) was 2.74. For the same compound, the Response (GEM 10 nM + ATRi 300 nM) was 3.12, the Response (GEM 10 nM + ATRi 1000 nM) was 2.13 and the Response (GEM 30 nM + ATRi 100 nM) was 2.24. For the same compound, the Response (GEM 30 nM + ATRi 300 nM) was 2.10, the Response (GEM 100 nM + ATRi 100 nM) was 1.89 and the Response (GEM 100 nM + ATRi 1000 nM) was 1.42. It also gave a Response (GEM 300 nM + ATRi 100 nM) of 1.67, a Response (GEM 300 nM + ATRi 300 nM) of 1.55 and a Response (GEM 1000 nM + ATRi 100 nM) of 1.60. The Response (GEM 1000 nM + ATRi 300 nM) was 1.47, the Response (GEM 3000 nM + ATRi 100 nM) was 1.61 and the Response (GEM 3000 nM + ATRi 300 nM) was 1.44. For the same compound, the EC50 (ASPC1, 72 h, AsPC1, Experiment ATRi (ATR inhibitor alone), single replicates R1-R3) was 1810 nM, the EC50 (ASPC1, 72 h, read-out: EC50 (cell growth), ATR inhibitor as single agent) was 1720 nM and the EC50 (ASPC1, 72 h, read-out: EC50 mean [nM], AsPC1, Experiment ATRi (ATR inhibitor alone), mean of replicates) was 1720 nM. It also gave an EC50 (ASPC1, 72 h, read-out: pEC50, AsPC1 (converted), Experiment ATRi (ATR inhibitor alone), single replicates R1-R3) of 1820 nM, an EC50 (ASPC1, read-out: EC50 mean [nM], AsPC1, Experiment ATRi (ATR inhibitor alone), mean of replicates) of 1720 nM and a Response (experiment ATRi, GEM 0 nM, ATRi 100 nM, AsPC1, replicates R2, R3) of 1.95. The Response (experiment GEM+ATRi_dose1, GEM 0 nM, ATRi 100 nM, AsPC1, replicates R2, R3) was 3.76 and 3.38, the Response (experiment GEM+ATRi_dose1, GEM 1 nM, ATRi 100 nM, AsPC1, replicates R2, R3) was 3.75 and 3.44 and the Response (experiment GEM+ATRi_dose1, GEM 3 nM, ATRi 100 nM, AsPC1, replicates R2, R3) was 3.76 and 3.47. For the same compound, the Response (experiment GEM+ATRi_dose1, GEM 10 nM, ATRi 100 nM, AsPC1, replicates R2, R3) was 3.43, the Response (experiment GEM+ATRi_dose1, GEM 30 nM, ATRi 100 nM, AsPC1, replicates R2, R3) was 2.86 and 2.80 and the Response (experiment GEM+ATRi_dose1, GEM 100 nM, ATRi 100 nM, AsPC1, replicates R2, R3) was 1.90 and 2.07. For the same compound, the Response (experiment GEM+ATRi_dose1, GEM 300 nM, ATRi 100 nM, AsPC1, replicates R2, R3) was 1.72 and 1.75, the Response (experiment GEM+ATRi_dose1, GEM 1000 nM, ATRi 100 nM, AsPC1, replicates R2, R3) was 1.62 and 1.67 and the Response (experiment GEM+ATRi_dose1, GEM 3000 nM, ATRi 100 nM, AsPC1, replicates R2, R3) was 1.55 and 1.53. For the same compound, the Response (experiment GEM+ATRi_dose2, GEM 0 nM, ATRi 300 nM, AsPC1, replicates R2, R3) was 3.86 and 3.56, the Response (experiment GEM+ATRi_dose2, GEM 1 nM, ATRi 300 nM, AsPC1, replicates R2, R3) was 3.53 and 2.33 and the Response (experiment GEM+ATRi_dose2, GEM 3 nM, ATRi 300 nM, AsPC1, replicates R2, R3) was 3.61 and 3.55. For the same compound, the Response (experiment GEM+ATRi_dose2, GEM 10 nM, ATRi 300 nM, AsPC1, replicates R2, R3) was 3.45 and 3.38, the Response (experiment GEM+ATRi_dose2, GEM 30 nM, ATRi 300 nM, AsPC1, replicates R2, R3) was 2.30 and the Response (experiment GEM+ATRi_dose2, GEM 100 nM, ATRi 300 nM, AsPC1, replicates R2, R3) was 1.61. For the same compound, the Response (experiment GEM+ATRi_dose2, GEM 300 nM, ATRi 300 nM, AsPC1, replicates R2, R3) was 1.48 and 1.53, the Response (experiment GEM+ATRi_dose2, GEM 1000 nM, ATRi 300 nM, AsPC1, replicates R2, R3) was 1.52 and 1.48 and the Response (experiment GEM+ATRi_dose2, GEM 3000 nM, ATRi 300 nM, AsPC1, replicates R2, R3) was 1.45. For the same compound, the Response (experiment GEM+ATRi_dose3, GEM 0 nM, ATRi 1000 nM, AsPC1, replicates R2, R3) was 3.10 and 2.81, the Response (experiment GEM+ATRi_dose3, GEM 1 nM, ATRi 1000 nM, AsPC1, replicates R2, R3) was 3.14 and 2.98 and the Response (experiment GEM+ATRi_dose3, GEM 3 nM, ATRi 1000 nM, AsPC1, replicates R2, R3) was 2.92. The Response (experiment GEM+ATRi_dose3, GEM 10 nM, ATRi 1000 nM, AsPC1, replicates R2, R3) was 2.52 and 2.34, the Response (experiment GEM+ATRi_dose3, GEM 30 nM, ATRi 1000 nM, AsPC1, replicates R2, R3) was 1.76 and 1.67 and the Response (experiment GEM+ATRi_dose3, GEM 100 nM, ATRi 1000 nM, AsPC1, replicates R2, R3) was 1.44. The Response (experiment GEM+ATRi_dose3, GEM 1000 nM, ATRi 1000 nM, AsPC1, replicates R2, R3) was 1.42, the “Raw data” value (titrated drug dose 3 nM, replicate R3, experiment (ATRi) Ceralasertib, AsPC-1, 72 h) was 3.28 and the “Raw data” value (titrated drug dose 10 nM, replicate R3, experiment (ATRi) Ceralasertib, AsPC-1, 72 h) was 3.61. For the same compound, the “Raw data” value (titrated drug dose 30 nM, replicate R3, experiment (ATRi) Ceralasertib, AsPC-1, 72 h) was 3.58, the “Raw data” value (titrated drug dose 300 nM, replicate R3, experiment (ATRi) Ceralasertib, AsPC-1, 72 h) was 3.61 and the “Raw data” value (titrated drug dose 1000 nM, replicate R3, experiment (ATRi) Ceralasertib, AsPC-1, 72 h) was 3.17. For the same compound, the “Raw data” value (titrated drug dose 3000 nM, replicate R3, experiment (ATRi) Ceralasertib, AsPC-1, 72 h) was 1.6 and the “Raw data” value (titrated drug dose 10000 nM, replicate R3, experiment (ATRi) Ceralasertib, AsPC-1, 72 h) was 1.25.
